Several values for one entry are separate records, joined by “and”; a condition that tells them apart may be missing. Identical values can stand only once.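 Cultured in 96-well plates, cells were exposed to test compound for 48 hours across five concentrations. Abbreviation: GI50, concentration required for 50% inhibition of growth. At the TGI there is no net growth.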
Experiments:
Assay in all cases: DTP human tumour cell line panel, 48 h
[1] = tested on: MALME-3M melanoma
[2] = tested on: OVCAR-8 ovarian
[3] = tested on: SF-539 CNS
[4] = tested on: MOLT-4 leukemia
[5] = tested on: UACC-257 melanoma
[6] = tested on: NCI-H23 lung
[7] = tested on: OVCAR-3 ovarian
[8] = tested on: A498 renal
[9] = tested on: U251 CNS
[10] = tested on: TK-10 renal

Row | SMILES | TGI [1] [µM] | TGI [2] [µM] | TGI [3] [µM] | TGI [4] [µM] | TGI [5] [µM] | TGI [6] [µM] | TGI [7] [µM] | TGI [8] | TGI [9] [µM] | TGI [10] [µM] | GI50 [3] [µM] | GI50 [5] [µM] | GI50 [8] [µM] | GI50 [10] [µM] | GI50 [1] [µM] | GI50 [4] [µM] | GI50 [6] [µM] | GI50 [7] [µM] | GI50 [9] [µM]
1 | OC(CC1CCCCN1)c1ccc2c(c1)oc1ccccc12 (centres undefined) | > 100 | > 100 | > 100 | 67.1 | > 100 | > 100 | > 100 | 64.7 µM | > 100 | > 100 |  |  |  |  |  |  |  |  | 
2 | CN(C)CCNC(=O)c1cccc2c(=O)c3ccccc3oc12 | 64.3 | > 83.5 | > 100 | > 100 | 74.4 | > 100 | > 100 | 52.8 µM | > 100 |  |  |  |  |  |  |  |  |  | 
3 | Cc1n(CC(C)C)c2c([n+]1C)C(=O)c1ccccc1C2=O | 0.28 | 0.937 | 0.532 | 0.955 | 0.156 | 0.107 | 0.0961 | 1.27 µM | 0.499 | 3.38 |  |  |  |  |  |  |  |  | 
4 | CCOP(=Nc1ccc(N(C)C)cc1)(OCC)OCC | > 100 | > 100 |  | > 100 | > 100 | > 100 | > 100 | > 100 µM | > 100 | > 100 |  |  |  |  |  |  |  |  | 
5 | CCC1C[N+]23CCc4c([nH]c5ccccc45)C2CC1CC3 (centres undefined) | 97.4 | > 100 |  | 95.2 | > 100 | > 100 | > 100 |  | > 100 | > 100 |  |  |  |  |  |  |  |  | 
6 | CN(C)/C=C/C(=CC=[N+](C)C)/C=C/N(C)C | > 100 | > 100 | > 100 | > 100 | > 100 | > 100 | > 100 | > 100 µM | > 100 | > 100 |  |  |  |  |  |  |  |  | 
7 | CC(=O)C(C(c1ccccc1)N1CCOCC1)N1CCOCC1 (centres undefined) | > 100 | > 100 | > 100 | > 100 | 38.9 | > 100 | > 100 | > 100 µM | > 100 | 53.7 |  |  |  |  |  |  |  |  | 
8 | Cc1ccc(S(=O)(=O)Nc2cccc3c(=O)[nH]cnc23)cc1 | > 100 | > 100 | > 100 | > 100 | > 100 | > 100 | > 100 | > 100 µM | > 100 | > 100 |  |  |  |  |  |  |  |  | 
9 | CC1=C2C(O)C(C(C)C(=O)N(C)C)CCC2(C)C=CC1=O (centres undefined) |  | > 100 | > 100 | > 100 | > 100 | > 100 | > 100 | > 100 µM | > 100 |  |  |  |  |  |  |  |  |  | 
10 | O=C1C=C(C2OC(CO)C(O)C2O)C(=O)N1 (centres undefined) | > 100 | > 100 | > 100 | > 100 | > 100 | > 100 | > 100 | > 100 µM | > 100 |  |  |  |  |  |  |  |  |  | 
11 | COc1cc2c(cc1O)c(O)cc1c3cc(OC)c(OC)cc3c[n+](C)c21 | > 100 | > 79 | > 100 | 40.3 | > 100 | 29.5 | > 100 | > 100 µM | 4.57 | > 100 |  |  |  |  |  |  |  |  | 
12 | COC1OC(CS(=O)(=O)O)C(O)C(O)C1O (centres undefined) | > 100 | > 100 |  | > 100 | > 100 | > 100 | > 100 | > 100 µM | > 100 | > 100 |  |  |  |  |  |  |  |  | 
13 | O=C(c1ccccc1)c1ccc2n[se]nc2c1 | > 100 | > 100 | 43 | > 100 | > 100 | > 100 |  | > 100 µM | > 100 | > 100 |  |  |  |  |  |  |  |  | 
14 | Cc1ccc2c(ccc(/C=C/c3ccc(O)c4ncccc34)[n+]2C)c1 | 31.4 | 24 | 23.1 | > 82.2 | 24.2 | 40.7 | 10.4 | 26.5 µM | 26.8 | 38.9 |  |  |  |  |  |  |  |  | 
15 | CCOC(=O)Nc1cc2c(c(N)n1)N=C(c1ccc(OC)cc1)CN2 |  | > 100 |  |  | 36.5 |  | 0.0156 | 0.645 µM and 0.972 µM | 2.47 | 90.1 | < 0.0001 | 12.9 | 0.178 | 0.837 |  |  |  |  | 
16 | CCCC(C)c1ccc(OCCCCCCN2CCNCC2)cc1 (centres undefined) | 3.75 |  | 3.46 | 3.48 | 4.72 | 5.62 | 3.87 | 9.33 µM | 3.07 | 3.47 | 1.71 | 2.05 | 2.43 | 1.8 | 1.93 | 1.52 | 2.13 | 1.78 | 1.57
17 | N#C[S-].[La+3].c1cnc2c(c1)ccc1cccnc12.c1cnc2c(c1)ccc1cccnc12.c1cnc2c(c1)ccc1cccnc12 | 7.06 | 11.5 | 14.1 | 6.55 | 20.2 | 22.2 | 19.2 | 13.5 µM | 11.9 | 25.4 |  |  |  |  |  |  |  |  | 
